Data on 16 compounds can be found in patent US5498710A, “Alkyl ether analogues of benzoporphyrin derivatives” (Health Research, Inc., priority 1994, dated 1996).

Data set [1] concerns SMT-F tumor. The experiment in a line: In vivo antitumor (photodynamic) activity, SMT-F tumors in DBA/2 mice. More on the design: species or system DBA/2 Ha-DD mouse. Particulars: for tumorcidal activity: similar doses and treatment conditions; for antitumor / photosensitizing activity: 1.0 mg/kg, light 3 h post i.v. injection where stated; for in vivo photosensitizing efficacy / antitumor activity compared with BPD: mice, compared with BPD (mixture of 21 and 22); for Tumor response (nonpalpable tumor), 1-2 d / Tumor response (nonpalpable tumor), 7 d / Tumor response (nonpalpable tumor), 30 d: 1.0 mg/kg i.v., light 3 h after injection; for Tumor response (nonpalpable tumor), 1-2 d: day 1-2; for Tumor response (nonpalpable tumor), 7 d: day 7; for Tumor response (nonpalpable tumor), 30 d: day 30. Here is the method:
Tumor Response and Foot Response Experiments: For tumor response experiments (see Table 3), a 1mm^3 piece of SMT-F tumor from a donor DBA/2 Ha-DD mouse was implanted subcutaneously with a trocar into the axilla of a 5-7 week old female DBA/2 Ha-DD mouse. When the tumor had grown to about 4mm diameter, mice were injected intravenously (i.v.) with photosensitizers at various doses. At various time after injection, mice were restrained in Plexiglas® holders and each tumor was illuminated with 135 J/cm^2 light from a dye laser 171 (spectra physics). The light dose rate was 75 mW/cm^2 as measured with a PTR Optics […]. The percentage of short term control (non-palpable tumors) was recorded daily. For our study 6 mice/group were used.
(§1) In vivo Biological Activity: The in vivo photosensitizing ability of all the sensitizers was compared with that of commercial BPD in DBA/2 mice bearing subcutaneously implanted SMT-F tumors, a method previously described by Dougherty et al. All photosensitizers, including commercial BPD (mixture of 21 and 22) were first dissolved in a minimum quantity of Tween 80 and then diluted with 0.9% saline, to a final concentration of 1% Tween 80.
(§2) It can be seen from Table 3 that commercial BPD was quite effective at a dose of 5.0 mg/kg, 3 h post i.v. injection (4 out of six mice were tumor free at day 30). […] However, replacement of the vinyl with a 1-hexyloxyethyl group induced a remarkable difference in photosensitizing activity.

Data set [2] can be described thus: Electronic absorption, red absorption maximum. As to conditions: for red shift in the absorption spectra: electron-withdrawing groups on macrocycle; for strong absorption in the red: formyl-BPDs. Format: physicochemical. Here is the method: M.p.s were measured on a Thomas/Bristoline microscopic hot stage apparatus and were uncorrected. Silica gel 60 (70-230 and 230-400 mesh, Merck) or neutral alumina (Merck; usually Brockmann Grade III, i. e., deactivated with 6% water) were used for column chromatography. Preparative thin layer chromatography was carried out on 20×20 cm glass plates coated with Merck G 254 silica gel (1 mm thick). Analytical thin layer chromatography (TLC) was performed using merck 60 F254 silica gel (precoated sheets, 0.2 mm thick). Reactions were monitored by TLC and spectrophotometry and were carried out under nitrogen and in the dark. ^1 HNMR spectra were obtained in deuteriochloroform solution at 300 MHz using a General Electric QE300 spectrometer; chemical shifts are expressed in ppm relative to chloroform (7.258 ppm). Elemental analyses were performed at the Midwest Microlab, Ltd., Indiana, USA. Unless stated otherwise, electronic absorption spectra were measured in dichloromethane solution using a Hewlett-Packard 8450A spectrophotometer. Mass spectra were obtained at the Mass Spectrometry Facility, University of California, San Francisco and at the Department of Biophysics, Roswell Park Cancer Institute, Buffalo.

Data set [3] is described as follows: Solubility of photosensitizers. It is filed as physicochemical. Particulars: Tween 80, then 0.9% saline (1% Tween 80).
Excerpt: as §1, §2

Data set [4] concerns SMT-F tumor. The experiment in a line: In vivo antitumor (photodynamic) activity, SMT-F tumors in DBA/2 mice. On the set-up: species or system DBA/2 Ha-DD mouse. Particulars: 5.0 mg/kg i.v., light 24 h after injection.

Entries after “also recorded” stand apart in the source; their conditions may differ.

Regarding `COC(=O)CCC1=C(C)c2cc3[nH]c(cc4nc(cc5[nH]c(cc1n2)c(CCC(=O)OC)c5C)C(C=CC(C)C1=C(C)c2cc5[nH]c(cc6nc(cc7[nH]c(cc1n2)c(C)c7CCC(=O)OC)C(CCC(=O)OC)=C6C)C1(C)C5=CC=C(C(=O)OC)C1C(=O)OC)=C4C)C1=CC=C(C(=O)OC)C(C(=O)OC)C13C` (mixture of isomers) [Compound 46, Bis-Benzoporphyrin], the “tumorcidal activity” value in data set [1] is “did not show any significant tumorcidal activity”.
In the case of `COC(=O)CCC1=C(C)c2cc3[nH]c(cc4nc(cc5[nH]c(cc1n2)c(CCC(=O)OC)c5C)C(C(C)=O)=C4C)C1=CC=C(C(=O)OC)C(C(=O)OC)C13C` (stereo not drawn) [Compound 37, 8-Acetylbenzoporphyrin Derivative], the “red shift in the absorption spectra” value in data set [2] is recorded as “significant red shift in the absorption spectra”. Moreover, in data set [3], the “ease of dissolution” value was “difficult to dissolve”. In data set [1], the “antitumor / photosensitizing activity” value was “inactive” and the “in vivo photosensitizing efficacy / antitumor activity compared with BPD” value was “failed to improve their photosensitizing efficacy”.
“3-(1-Hexyloxyethyl)benzoporphyrin Derivative [Compound 35]”: in data set [1], the “Tumor response (nonpalpable tumor), 1-2 d” value (shortened to “Tumor response … 1-2 d”) is on record as 6/6; the “Tumor response (nonpalpable tumor), 7 d” value is given as 6/6; the “Tumor response (nonpalpable tumor), 30 d” value is 2/6; the “antitumor / photosensitizing activity” value was “active; also recorded: good antitumor activity”. For the same compound, in data set [1], the “in vivo photosensitizing efficacy / antitumor activity compared with BPD” value is reported as “significantly more active than the industrially prepared benzoporphyrin derivative; also recorded: better photosensitizing efficacy than benzoporphyrin derivative monocarboxylic acid; also recorded: better anti-tumor activity than BPD-MA”.
`COC(=O)CCC1=C(C)c2cc3[nH]c(cc4nc(cc5[nH]c(cc1n2)c(CCC(=O)OC)c5C)C(C)=C4C=O)C1(C)C3=CC=C(C(=O)OC)C1C(=O)OC` (stereo not drawn) [Compound 34, 3-Formylbenzoporphyrin Derivative]: the “strong absorption in the red” value in data set [2] is 696 nm. For the same compound, in data set [1], the “tumorcidal activity” value is given as “did not show any significant tumorcidal activity”.
On to `COC(=O)CCC1=C(C)c2cc3[nH]c(cc4nc(cc5[nH]c(cc1n2)c(CCC(=O)OC)c5C)C(C)=C4C(C)=O)C1(C)C3=CC=C(C(=O)OC)C1C(=O)OC` (stereo not drawn) [Compound 31, 3 -Acetylbenzoporphyrin Derivative], for which the “red shift in the absorption spectra” value in data set [2] was “significant red shift in the absorption spectra”. In data set [3], the “ease of dissolution” value is “difficult to dissolve”. Also, in data set [1], the “antitumor / photosensitizing activity” value was “inactive”, the “in vivo photosensitizing efficacy / antitumor activity compared with BPD” value is listed as “failed to improve their photosensitizing efficacy” and the “tumorcidal activity” value is “did not show any significant tumorcidal activity”.
As for `COC(=O)CCC1=C(C)c2cc3[nH]c(cc4nc(cc5[nH]c(cc1n2)c(CCC(=O)OC)c5C)C(C=O)=C4C)C1=CC=C(C(=O)OC)C(C(=O)OC)C13C` (stereo not drawn) [Compound 26, 8-Formylbenzoporphyrin Derivative], the “strong absorption in the red” value in data set [2] was determined as 696 nm. For the same compound, the “tumorcidal activity” value in data set [1] is “did not show any significant tumorcidal activity”.
On to `C=CC1=C(C)c2cc3[nH]c(cc4nc(cc5[nH]c(cc1n2)c(C)c5CCC(=O)OC)C(CCC(=O)OC)=C4C)C1(C)C3=CC=C(C(=O)OC)C1C(=O)OC` (stereo not drawn) [Compound 36, 8-Vinylbenzoporphyrin Derivative], for which, in data set [1], the “antitumor / photosensitizing activity” value is reported as “activity similar to BPD”.
`C=CC1=C(C)c2cc3[nH]c(cc4nc(cc5[nH]c(cc1n2)c(C)c5CCC(=O)OC)C(CCC(=O)OC)=C4C)C1(C)C3=CC=C(C(=O)OC)C1C(=O)OC` (stereo not drawn) [Compound 20, 8-vinylbenzoporphyrin Derivative]: the “antitumor / photosensitizing activity” value in data set [1] was “activity similar to BPD”.
Turning to `COC(=O)CCC1=C(C)c2cc3[nH]c(cc4nc(cc5[nH]c(cc1n2)c(CCC(=O)OC)c5C)C(C(C)=O)=C4C)C1=CC=C(C(=O)OC)C(C(=O)OC)C13C` (stereo not drawn) [Compound 23, 8-Acetylbenzoporphyrin Derivative], the “red shift in the absorption spectra” value in data set [2] is on record as “significant red shift in the absorption spectra”. Moreover, the “ease of dissolution” value in data set [3] is “difficult to dissolve”. Further, in data set [1], the “antitumor / photosensitizing activity” value was “inactive”, the “in vivo photosensitizing efficacy / antitumor activity compared with BPD” value is given as “failed to improve their photosensitizing efficacy” and the “tumorcidal activity” value is given as “did not show any significant tumorcidal activity”.
Consider `CCCCCCOC(C)C1=C(C)c2cc3[nH]c(cc4nc(cc5[nH]c(cc1n2)c(C)c5CCC(=O)OC)C(CCC(=O)OC)=C4C)C1(C)C3=CC=C(C(=O)OC)C1C(=O)OC` (mixture of isomers) [Compound 27, 8-(1-Hexyloxyethyl)benzoporphyrin Derivative], for which the absorption maximum wavelength in data set [2] (maximum red absorption peak, Table 3) was determined as 676 nm. Besides, in data set [1], the “Tumor response … 1-2 d” value is listed as 6/6; the “Tumor response (nonpalpable tumor), 7 d” value is 4/6; the “Tumor response (nonpalpable tumor), 30 d” value is reported as 1/6; the “antitumor / photosensitizing activity” value was “active; also recorded: good antitumor activity”. Also, the “in vivo photosensitizing efficacy / antitumor activity compared with BPD” value in data set [1] is recorded as “significantly more active than the industrially prepared benzoporphyrin derivative; also recorded: better photosensitizing efficacy than benzoporphyrin derivative monocarboxylic acid; also recorded: better anti-tumor activity than BPD-MA”.
In the case of `COC(=O)CCC1=C(C)c2cc3[nH]c(cc4nc(cc5[nH]c(cc1n2)c(CCC(=O)OC)c5C)C(C)=C4C(C)=O)C1(C)C3=CC=C(C(=O)OC)C1C(=O)OC` (stereo not drawn) [Compound 42, 3 -Acetylbenzoporphyrin Derivative], the “red shift in the absorption spectra” value in data set [2] is on record as “significant red shift in the absorption spectra”. The “ease of dissolution” value in data set [3] was “difficult to dissolve”. Besides, in data set [1], the “antitumor / photosensitizing activity” value is “inactive” and the “in vivo photosensitizing efficacy / antitumor activity compared with BPD” value is recorded as “failed to improve their photosensitizing efficacy”.
Consider `C=CC1=C(C)c2cc3[nH]c(cc4nc(cc5[nH]c(cc1n2)C1(C)C5=CC=C(C(=O)OC)C1C(=O)OC)C(C)=C4CCC(=O)OC)c(CCC(=O)OC)c3C` (stereo not drawn) [Compound 28, 3-Vinylbenzoporphyrin Derivative], for which, in data set [1], the “antitumor / photosensitizing activity” value was “activity similar to BPD”.
As to “3-(1-Hexyloxyethyl)benzoporphyrin Derivative [Compound 45]”, in data set [4] (day 1-2), the “Tumor response … 1-2 d” value is recorded as 6/6. Moreover, the “Tumor response (nonpalpable tumor), 7 d” value in data set [4] (day 7) is listed as 6/6. Besides, the “Tumor response (nonpalpable tumor), 30 d” value in data set [4] (day 30) is 0/6. Also, in data set [1], the “Tumor response … 1-2 d” value was 6/6; the “Tumor response (nonpalpable tumor), 7 d” value is on record as 4/6; the “Tumor response (nonpalpable tumor), 30 d” value is listed as 0/6; the “antitumor / photosensitizing activity” value was “active”. Besides, the “in vivo photosensitizing efficacy / antitumor activity compared with BPD” value in data set [1] is given as “significantly more active than the industrially prepared benzoporphyrin derivative; also recorded: better photosensitizing efficacy than benzoporphyrin derivative monocarboxylic acid; also recorded: better anti-tumor activity than BPD-MA”.
Consider `CCC1=C(C)c2cc3[nH]c(cc4nc(cc5[nH]c(cc1n2)c(C)c5CCC(=O)OC)C(CCC(=O)OC)=C4C)C1(C)C3=CC=C(C(=O)OC)C1C(=O)OC` (stereo not drawn) [Compound 25, 8-Ethylbenzoporphyrin Derivative], for which, in data set [1], the “tumorcidal activity” value is listed as “did not show any significant tumorcidal activity”.
The same measure, in the same setting: to `CCC1=C(C)c2cc3[nH]c(cc4nc(cc5[nH]c(cc1n2)C1(C)C5=CC=C(C(=O)OC)C1C(=O)OC)C(C)=C4CCC(=O)OC)c(CCC(=O)OC)c3C` (stereo not drawn) [Compound 33, 2-Ethylbenzoporphyrin Derivative] belongs “did not show any significant tumorcidal activity”.
As to `C=CC1=C(C)c2cc3[nH]c(cc4nc(cc5[nH]c(cc1n2)C1(C)C5=CC=C(C(=O)OC)C1C(=O)OC)C(C)=C4CCC(=O)OC)c(CCC(=O)OC)c3C` (stereo not drawn) [Compound 41, 3-Vinyl-BPD], the “antitumor / photosensitizing activity” value in data set [1] is given as “activity similar to BPD”.
